Data taken from ChEMBL document CHEMBL5385881, “Design, synthesis, and discovery of Eudistomin Y derivatives as lysosome-targeted antiproliferation agents” (Eur J Med Chem, 2023).

What was measured:
Type in all cases: functional, cell-based
[1] = system: MDA-MB-231; assay: Cytotoxicity against human MDA-MB-231 cells assessed as cell inhibition measured after 72 hrs by MTT assay; settings: MDA-MB-231, 72 h
[2] = system: A549; assay: Cytotoxicity against human A549 cells assessed as cell inhibition measured after 72 hrs by MTT assay; settings: A549, 72 h
[3] = system: SGC-7901; assay: Cytotoxicity against human SGC-7901 cells assessed as cell inhibition measured after 72 hrs by MTT assay; settings: SGC-7901, 72 h
[4] = system: LS180; assay: Cytotoxicity against human LS180 cells assessed as cell inhibition measured after 72 hrs by MTT assay; settings: LS180, 72 h
[5] = system: HepG2; assay: Cytotoxicity against human HepG2 cells assessed as cell inhibition measured after 72 hrs by MTT assay; settings: HepG2, 72 h

Q: With `Cc1cccc(Cn2c3ccccc3c3ccnc(C(=O)c4ccccc4)c32)c1` as the compound, how does the IC50 [1] read?
A: 56.5 µM

Q: What about the IC50 [2] of the same compound?
A: 33.6 µM

Q: And the IC50 [3]?
A: 25.4 µM

Q: What about the IC50 [4] of the same compound?
A: 19 µM

Q: And the IC50 [5]?
A: 31.8 µM
